Experimental findings from PubChem BioAssay (NCI) are described below.

The structures appear in SMILES notation.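 Five concentrations, 48 hours, 96-well plates. TGI: total growth inhibition.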

Among the test systems are ACHN renal; COLO 205 colon; HCT-116 colon; HCT-15 colon; HOP-62 NSCLC; HT29 colon; IGROV1 ovarian; LOX IMVI melanoma; MALME-3M melanoma; MCF7 breast; MDA-MB-231 breast; MDA-MB-435; MOLT-4 leukemia; NCI-H23 lung; OVCAR-4 ovarian; PC-3 prostate; SF-295 CNS; SK-OV-3 ovarian; U251 CNS.
Holding throughout (test): NCI tumour cell line growth inhibition, 48 h

In the case of `c1ccc2sc(C3(N4CCCCC4)CCCCCC3)cc2c1`, the TGI was determined as 35 µM with ACHN renal; 31.8 µM with COLO 205 colon; 32.8 µM in the assay on HCT-116 colon; 34.8 µM in the assay on HCT-15 colon; 60.9 µM in the assay on HOP-62 NSCLC; 31.7 µM in the assay on HT29 colon. Besides, the TGI amounted to 52.7 µM with IGROV1 ovarian; 34.6 µM with LOX IMVI melanoma; 53.9 µM in the assay on MALME-3M melanoma; 31.9 µM in the assay with MCF7 breast; 42.1 µM in the assay with MDA-MB-231 breast; 55.2 µM in the assay with MDA-MB-435. Also, the TGI was 29.6 µM with MOLT-4 leukemia; 43.3 µM in the assay with NCI-H23 lung; 76 µM in the assay with OVCAR-4 ovarian; 29.3 µM in the assay with PC-3 prostate; 49.1 µM with SF-295 CNS; 66.7 µM in the assay on SK-OV-3 ovarian. In the assay on U251 CNS, the TGI turned out to be 31 µM.

With `Cc1ccc(-n2c(Cn3nnc(-c4cccnc4)n3)nn(C3OC(COC(=O)c4ccccc4)C(OC(=O)c4ccccc4)C3OC(=O)c3ccccc3)c2=S)cc1` (stereo not drawn), the TGI with ACHN renal, with COLO 205 colon, with HCT-116 colon, in the assay on HCT-15 colon, in the assay with HOP-62 NSCLC and in the assay on HT29 colon was above 100 µM each time. For the same molecule, the TGI with IGROV1 ovarian, in the assay with LOX IMVI melanoma, in the assay on MALME-3M melanoma, in the assay with MCF7 breast, in the assay with MDA-MB-231 breast and in the assay on MDA-MB-435 was above 100 µM in each case. For the same molecule, the TGI in the assay with MOLT-4 leukemia, with NCI-H23 lung, in the assay on OVCAR-4 ovarian, in the assay with PC-3 prostate, in the assay with SF-295 CNS and with SK-OV-3 ovarian was above 100 µM in each case. This molecule came in with a TGI in the assay with U251 CNS above 100 µM.

Consider `CCOC(=O)C(=O)N=Nc1nc2c(O)c3ccccc3c(O)c2s1`, for which the TGI in the assay with ACHN renal was 6.74 µM; in the assay on COLO 205 colon it was 25.2 µM; in the assay with HCT-116 colon it was 5.96 µM; in the assay with HCT-15 colon it was 6.49 µM; in the assay on HOP-62 NSCLC, 24.7 µM; with HT29 colon, 35 µM. For the same molecule, the TGI in the assay with IGROV1 ovarian is 14.6 µM; in the assay on LOX IMVI melanoma it was 3.88 µM; in the assay with MALME-3M melanoma, 3.48 µM; with MCF7 breast, 30.4 µM; with MDA-MB-231 breast it was 12.7 µM; in the assay on MDA-MB-435 it was 3.15 µM. For the same molecule, the TGI in the assay on MOLT-4 leukemia is above 100 µM; in the assay with NCI-H23 lung, 4.91 µM; in the assay with OVCAR-4 ovarian, 3.64 µM; in the assay on PC-3 prostate, 27.1 µM; in the assay on SF-295 CNS it was 12.3 µM; in the assay on SK-OV-3 ovarian it was 34.4 µM. In the assay on U251 CNS, the TGI came out at 14.1 µM.

In the case of `COc1cc2c(cc1OC)C1(c3ccccc3)CN(C2)Cc2cc(OC)c(OC)cc21`, the TGI with ACHN renal was above 100 µM; in the assay with COLO 205 colon, 34.2 µM; with HCT-116 colon, above 100 µM; in the assay on HCT-15 colon it was above 100 µM; in the assay on HOP-62 NSCLC, above 100 µM; in the assay with HT29 colon it was above 100 µM. Also, the TGI in the assay with IGROV1 ovarian was above 100 µM; in the assay on LOX IMVI melanoma, above 100 µM; in the assay with MALME-3M melanoma, above 100 µM; in the assay with MCF7 breast, above 100 µM; with MDA-MB-231 breast, 53.8 µM; with MDA-MB-435 it was 54.8 µM. The TGI in the assay on MOLT-4 leukemia is 84.7 µM; with NCI-H23 lung, 68.3 µM; in the assay with OVCAR-4 ovarian it was 77.6 µM; in the assay with PC-3 prostate, above 100 µM; in the assay with SF-295 CNS it was above 100 µM; in the assay on SK-OV-3 ovarian it was above 100 µM. In the assay with U251 CNS, this molecule showed a TGI of 54.6 µM.

On to `CCN1CC2=C(NC(=S)NC2c2cc(OC)c(OC)c(OC)c2)/C(=C/c2cc(OC)c(OC)c(OC)c2)C1` (stereo not drawn), for which the TGI was above 100 µM in the assay on ACHN renal; 52.9 µM in the assay on COLO 205 colon; above 100 µM in the assay with HCT-116 colon; above 100 µM in the assay on HCT-15 colon; above 100 µM with HOP-62 NSCLC; above 100 µM in the assay with HT29 colon. Moreover, the TGI was above 100 µM with IGROV1 ovarian; above 100 µM in the assay with LOX IMVI melanoma; 31.5 µM with MALME-3M melanoma; above 100 µM in the assay on MCF7 breast; above 100 µM with MDA-MB-231 breast; above 100 µM in the assay on MDA-MB-435. The TGI in the assay with MOLT-4 leukemia, with NCI-H23 lung, with OVCAR-4 ovarian, in the assay with PC-3 prostate, with SF-295 CNS and with SK-OV-3 ovarian was above 100 µM in each case. In the assay with U251 CNS, this molecule had a TGI above 100 µM.

As for `N#CC(C#N)=C(N)/C(C#N)=C/c1cc(O)c(O)c(Br)c1`, the TGI in the assay with ACHN renal, with COLO 205 colon, in the assay on HCT-116 colon, in the assay on HCT-15 colon, in the assay with HOP-62 NSCLC and in the assay on HT29 colon was above 100 µM in each case. Also, the TGI in the assay with IGROV1 ovarian, in the assay on LOX IMVI melanoma, with MALME-3M melanoma, in the assay on MCF7 breast, in the assay with MDA-MB-231 breast and in the assay with MDA-MB-435 was above 100 µM in each case. Also, the TGI in the assay with MOLT-4 leukemia, with NCI-H23 lung, in the assay on OVCAR-4 ovarian, with PC-3 prostate, in the assay with SF-295 CNS and with SK-OV-3 ovarian was above 100 µM each time. In the assay with U251 CNS, this molecule came in with a TGI above 100 µM.

`Cn1cc(C[C@@H](N)C(=O)O)c2ccccc21`: the TGI in the assay with ACHN renal, in the assay with COLO 205 colon, in the assay on HCT-116 colon, with HCT-15 colon, in the assay with HOP-62 NSCLC and with HT29 colon was above 100 µM each time. Also, the TGI in the assay on IGROV1 ovarian, in the assay on LOX IMVI melanoma, in the assay with MALME-3M melanoma, in the assay with MCF7 breast, in the assay with MDA-MB-231 breast and with MDA-MB-435 was above 100 µM each time. Besides, the TGI in the assay on MOLT-4 leukemia, in the assay on NCI-H23 lung, with OVCAR-4 ovarian, in the assay on PC-3 prostate, in the assay on SF-295 CNS and with SK-OV-3 ovarian was above 100 µM each time. Moreover, the TGI in the assay on U251 CNS was above 100 µM.
